Laboratory results as given in US20250136612A1, “4',5'-DIHYDROSPIRO[PIPERIDINE-4,7'-THIENO[2,3-C]PYRAN] DERIVATIVES AS INHIBITORS OF APOL1 AND METHODS OF USING SAME” (VERTEX PHARMACEUTICALS INCORPORATED, priority 2022, published 2025).

Target: T1, APOL1 (Homo sapiens, UniProt O14791)
T1 sequence (O14791 1-398 S342G/I384M): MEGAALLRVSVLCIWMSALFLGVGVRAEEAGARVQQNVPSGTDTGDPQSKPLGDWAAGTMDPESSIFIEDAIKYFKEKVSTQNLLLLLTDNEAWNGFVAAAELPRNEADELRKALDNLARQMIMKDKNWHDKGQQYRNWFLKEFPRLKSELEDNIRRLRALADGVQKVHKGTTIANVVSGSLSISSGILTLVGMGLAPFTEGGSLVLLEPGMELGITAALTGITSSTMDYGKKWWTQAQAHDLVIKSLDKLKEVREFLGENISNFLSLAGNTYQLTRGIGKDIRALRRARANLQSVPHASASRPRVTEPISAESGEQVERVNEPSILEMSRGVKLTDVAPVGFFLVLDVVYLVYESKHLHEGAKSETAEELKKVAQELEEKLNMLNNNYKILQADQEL
Assay: MultiTox-Fluor Multiplex Cytotoxicity Assay in tet-inducible APOL1 T-REx-HEK293 cells
Format: cell-based
Settings: 50 ng/mL tet, 24 hours, ratio of dead to live cells, read-out: IP50 (i.e., IC50 for cell proliferation)
Procedure: The MultiTox-Fluor Multiplex Cytotoxicity Assay is a single-reagent-addition, homogeneous, fluorescence assay that measures the number of live and dead cells simultaneously in culture wells. The assay measures cell viability and cytotoxicity by detecting two distinct protease activities. The live-cell protease activity is restricted to intact viable cells and is measured using a fluorogenic, cell-permeant peptide glycyl-phenylalanylamino fluorocoumarin (GF-AFC) substrate. The substrate enters intact cells, where it is cleaved to generate a fluorescent signal proportional to the number of living cells. […] A second, cell-impermeant, fluorogenic peptide substrate (bis-AAF-R110 Substrate) is used to measure dead-cell protease that has been released from cells that have lost membrane integrity. A ratio of dead to live cells is used to normalize data.
Briefly, the tet-inducible transgenic APOL1 T-REx-HEK293 cell lines were incubated with 50 ng/mL tet to induce APOL1 in the presence of 3-(2-(4-fluorophenyl)-1H-indol-3-yl)-N-((3S,4R)-4-hydroxy-2-oxopyrrolidin-3-yl)propenamide at 10.03, 3.24, 1.13, 0.356, 0.129, 0.042, 0.129, 0.0045, 0.0015, 0.0005 μM in duplicate for 24 hours in a humidified 37° C. incubator. The MultiTox reagent was added to each well and placed back in the incubator for an additional 30 minutes. The plate was read on the EnVision plate reader. A ratio of dead to live cells was used to normalize, and data was imported, analyzed, and fit using Genedata Screener (Basel, Switzerland) software. Data was normalized using percent of control, no tet (100% viability), and 50 ng/mL tet treated (0% viability),and fit using Smart Fit. The reagents, methods, and complete protocol for the MultiTox assay are described below.
Human embryonic kidney (HEK293) cell lines containing a tet-inducible expression system (T-REx™; Invitrogen, Carlsbad, CA) and Adeno-associated virus site 1 pAAVS1-Puro-APOL1 G0 or pAAVS1-Puro-APOL1 G1 or pAAVS1-Puro-APOL1 G2 Clones G0 DC2.13, G1 DC3.25, and G2 DC4.44 were grown in a T-225 flask at ˜90% confluency in cell growth media (DMEM, 10% Tet-free FBS, 2 mM L-glutamine, 100 Units/mL penicillin-streptomycin, 5 μg/mL blasticidin S HCl, 1 μg/mL puromycin dihydrochloride). Cells were washed with DPBS and then trypsinized to dissociate from the flask. Media was used to quench the trypsin, cells were then pelleted at 200 g and resuspended in fresh cell assay media (DMEM, 2% Tet-free FBS, 2 mM L-glutamine, 100 Units/mL penicillin-streptomycin). Cells were counted and diluted to 1.17×10^6 cells/mL. 20 μL of cells (23,400/well) were dispensed in every well of a 384-well Poly-D-Lysine coated plate using the Multidrop dispenser. The plates were then incubated at room temperature for one hour.
Tetracycline is needed to induce APOL1 expression. 1 mg/mL tet stock in water was diluted to 250 ng/mL (5×) in cell assay media. 60 μL of cell assay media (no tet control) was dispensed in columns 1 and 24, and 60 μL of 5×tet in 384-PP-round bottom plate was dispensed in columns 2 to 23 with the Multidrop dispenser.
Assay ready plates from the Global Compound Archive were ordered using template 384_APOL1Cell_DR10n2_50 uM_v3. Compounds were dispensed at 200 nL in DMSO. The final top concentration was 10 μM with a 10 point 3-fold dilution in duplicate in the MultiTox assay.
20 μL was transferred from the 5×tet plate to the ARP and mixed, then 5 μL of 5×tet and the compounds were transferred to the cell plate and mixed using the Bravo. The cell plate was placed in the humidified 37° C. 5% CO2 incubator for 24 hours.
The MultiTox-Fluor Multiplex Cytotoxicity Assay was performed in accordance with the manufacturer's protocol. After cells were incubated with tet and compound for 24 hours, 25 μL of 1×MultiTox reagent was added to each well using the Multidrop dispenser; the plates were placed on a plate shaker (600 rpm) for 2 minutes, then centrifuged briefly and placed back in the 37° C. incubator for 30 minutes. […]

Structure (SMILES)	IC50 [nM]
Cn1cc([C@@H]2C[C@]3(CCN2)OCC(O)c2cc(Cl)sc23)nn1 (stereo partly drawn) [Compound 36, (2S,4S)-2′-chloro-2-(1-methyl-1H-1,2,3-triazol-4-yl)-4′,5′-dihydrospiro[piperidine-4,7′-thieno[2,3-c]pyran]-4′-ol]	100 to 500
Cn1cc([C@@H]2C[C@]3(CCN2)OCC(=O)c2cc(Cl)sc23)nn1 [Compound 41, (2S,4S)-2′-chloro-2-(1-methyltriazol-4-yl)spiro[piperidine-4,7′-thieno[2,3-c]pyran]-4′-one]	100 to 500
[2H]C1([2H])CO[C@]2(CCN[C@H](c3cn(C)nn3)C2)c2sc(Cl)cc21 [Compound 43, (2'S, 7S)-2-chloro-4,4-dideuterio-2′-(1-methyltriazol-4-yl)spiro[5H-thieno[2,3-c]pyran-7,4′-piperidine]]	100 to 500
Cn1cc(C2CC3(CCN2)OCCc2cc(C4CC(F)(F)C4)sc23)nn1 (stereo not drawn) [Compound 46, 2-(3,3-difluorocyclobutyl)-2′-(1-methyltriazol-4-yl)spiro[4,5-dihydrothieno[2,3-c]pyran-7,4′-piperidine]]	100 to 500
Cn1cc(C2CC3(CCN2)OCC(O)c2cc(C4CC(F)(F)C4)sc23)nn1 (stereo not drawn) [Compound 47]	500 to 1000
Cn1cc([C@@H]2CC3(CCN2)OCCc2cc(CC(F)(F)F)sc23)nn1 (stereo partly drawn) [Compound 48]	100 to 500
Cn1cc(C2CC3(CCN2)OCCc2cc(CC(F)F)sc23)nn1 (stereo not drawn) [Compound 49]	< 100
FC(F)Cc1cc2c(s1)C1(CCNC(c3ccccc3)C1)OCC2 (stereo not drawn) [Compound 50]	100 to 500
Cn1cc([C@@H]2CC3(CCN2)OCCc2c3sc(C(F)(F)F)c2CO)nn1 (stereo partly drawn) [Compound 51, ((2S)-2-(1-methyl-1H-1,2,3-triazol-4-yl)-2′-(trifluoromethyl)-4′,5′-dihydrospiro[piperidine-4,7′-thieno[2,3-c]pyran]-3′-yl)methanol]	< 100
NC(=O)c1cccc(-n2cc([C@@H]3C[C@]4(CCN3)OCCc3cc(Cl)sc34)nn2)c1 [Compound 54, 3-(4-((2S,4S)-2′-chloro-4′,5′-dihydrospiro[piperidine-4,7′-thieno[2,3-c]pyran]-2-yl)-1H-1,2,3-triazol-1-yl)benzamide]	< 100
Clc1cc2c(s1)[C@@]1(CCN[C@H](c3cn(-c4ccccc4)nn3)C1)OCC2 [Compound 55, (2S,4S)-2′-chloro-2-(1-phenyl-1H-1,2,3-triazol-4-yl)-4′,5′-dihydrospiro[piperidine-4,7′-thieno[2,3-c]pyran]]	100 to 500
O=C1NCc2ccc(-n3cc([C@@H]4C[C@]5(CCN4)OCCc4cc(Cl)sc45)nn3)cc21 [Compound 56]	< 100
NC(=O)c1cc(-n2cc([C@@H]3C[C@]4(CCN3)OCCc3cc(Cl)sc34)nn2)ccc1F [Compound 57]	< 100
CNC(=O)c1cc(-n2cc([C@@H]3C[C@]4(CCN3)OCCc3cc(Cl)sc34)nn2)ccc1OC [Compound 58]	100 to 500
NC(=O)c1ccc(-n2cc([C@@H]3C[C@]4(CCN3)OCCc3cc(Cl)sc34)nn2)cc1 [Compound 59]	100 to 500
CN1Cc2cc(-n3cc([C@@H]4C[C@]5(CCN4)OCCc4cc(Cl)sc45)nn3)ccc2C1=O [Compound 60]	100 to 500
O=C1NCc2cc(-n3cc([C@@H]4C[C@]5(CCN4)OCCc4cc(Cl)sc45)nn3)ccc21 [Compound 61]	100 to 500

Structure (SMILES)	IC50 [nM]
CN1Cc2ccc(-n3cc([C@@H]4C[C@]5(CCN4)OCCc4cc(Cl)sc45)nn3)cc2C1=O [Compound 62]	100 to 500
Clc1cc2c(s1)[C@@]1(CCN[C@H](c3cn(-c4cccnc4)nn3)C1)OCC2 [Compound 63]	100 to 500
Clc1cc2c(s1)[C@@]1(CCN[C@H](c3cn(-c4ccncc4)nn3)C1)OCC2 [Compound 64]	100 to 500
Oc1ccc(-n2cc([C@@H]3C[C@]4(CCN3)OCCc3cc(Cl)sc34)nn2)cc1 [Compound 65]	100 to 500
COc1ccccc1-n1cc([C@@H]2C[C@]3(CCN2)OCCc2cc(Cl)sc23)nn1 [Compound 66]	100 to 500
COc1ccc(-n2cc([C@@H]3C[C@]4(CCN3)OCCc3cc(Cl)sc34)nn2)cc1 [Compound 67]	100 to 500
CN(C)C(=O)c1ccc(-n2cc([C@@H]3C[C@]4(CCN3)OCCc3cc(Cl)sc34)nn2)cc1 [Compound 68]	100 to 500
Clc1cc2c(s1)[C@@]1(CCN[C@H](c3cn(-c4ccccn4)nn3)C1)OCC2 [Compound 69]	100 to 500
Fc1cccc(-n2cc([C@@H]3C[C@]4(CCN3)OCCc3cc(Cl)sc34)nn2)c1 [Compound 70]	100 to 500
COc1cccc(-n2cc([C@@H]3C[C@]4(CCN3)OCCc3cc(Cl)sc34)nn2)c1 [Compound 71]	100 to 500
Fc1ccc(-n2cc([C@@H]3C[C@]4(CCN3)OCCc3cc(Cl)sc34)nn2)cc1 [Compound 72]	500 to 1000
CS(=O)(=O)CCn1cc([C@@H]2C[C@]3(CCN2)OCCc2cc(Cl)sc23)nn1 [Compound 73]	500 to 1000
Fc1ccccc1-n1cc([C@@H]2C[C@]3(CCN2)OCCc2cc(Cl)sc23)nn1 [Compound 74]	500 to 1000
Oc1ccccc1-n1cc([C@@H]2C[C@]3(CCN2)OCCc2cc(Cl)sc23)nn1 [Compound 75]	500 to 1000
COCCn1cc([C@@H]2C[C@]3(CCN2)OCCc2cc(Cl)sc23)nn1 [Compound 76]	500 to 1000
Clc1cc2c(s1)[C@@]1(CCN[C@H](c3c[nH]nn3)C1)OCC2 [Compound 77]	500 to 1000
